In publication PMC11124387, “A Reliable Multifaceted Solution against Foodborne Viral Infections: The Case of RiLK1 Decapeptide” (Molecules, 2024):
Several values for one entry are separate records, joined by “and”; a condition that tells them apart may be missing. Equal entries are not always repeated. Where two headings read alike, the source gives them in different places. Where a SMILES comes first, the peptide text is derived from it.

Experiments:
[1] = cited from earlier work; for structural stability: pH 2; for conformation in mimicked membrane solutions (self-aggregation): ref [41],[42],[43],[44],[45]
Description: In this context, to acquire important information on how the conformational properties of peptides might influence the structure–function relationships and their distinct membrane interaction profiles, the propensity of the new peptides, RiLK30 and AVP2, to adopt a defined secondary structure and to undergo conformational changes were examined by circular dichroism and fluorescence spectroscopy. These analyses were performed in the presence of a negatively charged SDS that is commonly used as a biomimetic membrane model to study the structural features of membranotropic molecules. In previous ...

[2] = test system: Murine norovirus strain 1 (MNV-1); assay: Cell pre-treatment assay, MNV-1; type: cell-based; details: cell pre-treatment: cells with peptide 80 µM 1 h 37 °C, peptide removed, then virus 1 h 37 °C, mean ± SD
Description: (§1) Four sets of experiments were performed to suppose the effect of RiLK1 and RiLK3 on HAV and MNV-1 [29]. To this aim, 80 µM solutions of the two peptides and HAV and MNV-1 suspensions at a final concentration of 4.7 ± 0.2 log TCID50/mL and 4.5 ± 0.2 log TCID50/mL, respectively, were used in the following experiments: • i) A virus pre-treatment assay to assess the direct interaction between the virus and peptide: the incubation of the peptide with viral suspension for 1 h at room temperature was carried out, followed by its incubation on cells for 1 h at 37 °C. Then, cell monolayers were washed twice with PBS and incubated with 500 µL DMEM/MEM supplemented with 2% of FBS to determine the TCID50/mL. • ii) A cell pre-treatment assay to assess the interaction between the peptide and cells before the viral infection: cell monolayers were preincubated with 100 µL of peptide solution for 1 h at 37 °C, followed by the removal of the peptide, addition to cells of viral suspensions for 1 h at 37 °C, washing step, and culture with 2% FBS DMEM/MEM. • iii) An attachment assay to assess the possible action of the peptide at the stage of virus attachment to cells: cell monolayers were incubated with 100 µL of a suspension containing both the peptide and virus and were incubated for 1 h at 4 °C. Subsequently, the cell monolayers were washed with PBS and incubated for 1 h at 37 °C with a culture medium followed by a washing step and the addition of culture with 2% FBS DMEM/MEM. • iv) An entry assay to assess the possible action of the peptide at the stage of virus internalization into cells: cell monolayers were incubated with 100 µL of the viral suspension for 1 h at 4 °C, followed by the addition of the peptide and incubation for 1 h at 37 °C. Cells were then washed with PBS, and 2% FBS DMEM/MEM was finally added.
(§2) Untreated viral suspensions and peptide solutions, incubated at the same conditions, were used as controls.
(§3) For each treatment, the average and standard deviation of the triplicate analyses were calculated. The virucidal effects of AMPs was assessed by calculating the log reduction value (LRV), i.e., the difference between the infectious titer (log-transformed) of untreated versus treated samples. The statistical significance of differences between treated and untreated samples was determined through one-way analysis of variance (ANOVA) with Bonferroni post hoc comparisons, with a significance level of p < 0.05 (GraphPad Prism v9.5.0, software San Diego, CA, USA).

[3] = test system: Murine norovirus strain 1 (MNV-1); type: cell-based; details: for Viral Titre after Treatment: titration on RAW 264.7 cells; for Viral Titre after Treatment / LRV (log reduction value): mean ± SD, triplicate; for virucidal activity toward MNV-1 (in words): 40 and 80 µM, 4 °C and RT
From the text: (§4) Murine norovirus strain 1 (MNV-1) was used as a surrogate for human norovirus (NoV). The virus was replicated in RAW 264.7 cells (murine macrophage cell line) cultured in Dulbecco’s modified Eagle’s medium (DMEM) supplemented with 1% glutamine, 1% non-essential amino acids, and 2% fetal bovine serum (FBS). Hepatitis A virus (HAV) strain HM-175 was replicated in Frp3 cells (non-human primate cell line derived from fetal kidney) cultured in minimum essential medium (MEM) with Earle’s salts supplemented with 1% glutamine, 2% non-essential amino acids, and 2% FBS. Both viruses were incubated in 5% CO2 at 37 °C. All cell culture media were provided by EuroClone (Milan, Italy). The viral suspensions were prepared by freeze and thaw lysis (1 cycle for MNV-1 and 3 cycles for HAV) of infected monolayers, clarified using low-speed centrifugation (800× g) to remove residual cell debris, then divided in aliquots, and stored at −80 °C until use.
(§5) Solutions 40 µM and 80 µM of each peptide of the panel (RiLK1, RiLK3, RiLK30, 1018-K6, MTP1, and AVP2) were chosen for the virucidal tests. HAV and MNV-1 were assayed at a concentration of 4.7 ± 0.2 log TCID50/mL and 4.5 ± 0.2 log TCID50/mL, respectively. The suspensions containing the peptides and viruses were incubated for 1 h at room temperature (RT,20 ± 2 °C) and 4 °C. These temperatures were chosen to simulate the use of sanitizing solutions in food production/processing environments. Residual viral infectivity was evaluated by titration (TCID50/mL) on Frp3 cells for HAV and on RAW 264.7 cells for MNV-1. Untreated HAV and MNV-1 suspensions and 40 µM and 80 µM AMP solutions, incubated at the same conditions, were used as controls. Each treatment condition was assayed in triplicate. For titration, 100 µL of serial tenfold dilutions of each sample were assayed in 24-well tissue culture plates containing 24–48 h cell monolayers and incubated for 1 h in 5% CO2 at 37 °C. After that, the wells were washed twice with 200 µL of PBS, and 500 µL of DMEM/MEM, supplemented with 2% of FBS, were was added to each well; MNV-1 and HAV incubations were carried for up to 6 days and 14 days, respectively, in 5% CO2 at 37 °C with daily visual inspection to determine the cytopathic effect. The virucidal efficacy of AMPs was estimated by comparing the titers of treated and untreated viral suspensions.
as §3

[4] = test system: Hepatitis A virus (HAV) strain HM-175; assay: Virucidal effect of peptides on HAV (residual infectivity by TCID50 titration on Frp3 cells); type: cell-based; details: for Viral Titre after Treatment: titration on Frp3 cells; for Viral Titre after Treatment / LRV (log reduction value): mean ± SD, triplicate
From the text: as §4, §5, §3

[5] = test system: Murine norovirus strain 1 (MNV-1); assay: Entry assay, MNV-1; type: cell-based; details: entry: cells with virus 1 h at 4 °C, then peptide 80 µM 1 h 37 °C, mean ± SD
Description: as §1, §2, §3

[6] = test system: Hepatitis A virus (HAV) strain HM-175; assay: Entry assay, HAV; type: cell-based; details: entry: cells with virus 1 h at 4 °C, then peptide 80 µM 1 h 37 °C, mean ± SD
Description: as §1, §2, §3

[7] = test system: Hepatitis A virus (HAV) strain HM-175; assay: Virus pre-treatment assay, HAV; type: cell-based; details: virus pre-treatment: peptide 80 µM with virus 1 h at RT, mean ± SD; for Viral Titre: then on Frp3 cells 1 h 37 °C
Description: as §1, with “Subsequently, the cell monolayers were washed with PBS and incubated for 1 h at 37 °C with a culture medium followed by a washing step and the addition of culture with 2% FBS DMEM/MEM. • iv) An entry assay to assess the possible action of the peptide at the stage of virus internalization into cells: cell monolayers were incubated with 100 µL of the viral suspension for 1 h at 4 °C, followed by the addition of the peptide and incubation for 1 h at 37 °C. Cells were then washed with PBS, and 2% FBS DMEM/MEM was finally added.” left out
as §3

[8] = MNV-1 4.5 ± 0.2 log TCID50/mL + peptide 80 µM, 1 h at 4 °C
[9] = MNV-1 + peptide 40 µM, 1 h at 4 °C
[10] = MNV-1 + peptide 40 µM, 1 h at RT (20 ± 2 °C)
[11] = MNV-1 + peptide 80 µM, 1 h at 4 °C
[12] = MNV-1 + peptide 80 µM, 1 h at RT (20 ± 2 °C)
[13] = maximum reduction, corresponding to the highest LRV
[14] = HAV 4.7 ± 0.2 log TCID50/mL + peptide 80 µM, 1 h at 4 °C
[15] = HAV + peptide 40 µM, 1 h at 4 °C
[16] = HAV + peptide 40 µM, 1 h at 4 °C, untreated minus treated titre
[17] = HAV + peptide 80 µM, 1 h at 4 °C, untreated minus treated titre
[18] = HAV + peptide 40 µM, 1 h at RT (20 ± 2 °C)
[19] = HAV + peptide 80 µM, 1 h at RT (20 ± 2 °C)

Compound	structural stability [1]	conformation in mimicked membrane solutions (self-aggregation) [1]	LRV [2]	Viral Titre [2] [logTCID50/mL]	Viral Titre after Treatment [3, 8] [logTCID50/mL]	LRV (log reduction value) [3, 9] [logTCID50/mL]	Viral Titre after Treatment [3, 9] [logTCID50/mL]	LRV (log reduction value) [3, 10] [logTCID50/mL]	Viral Titre after Treatment [3, 10] [logTCID50/mL]	LRV (log reduction value) [3, 11] [logTCID50/mL]	LRV (log reduction value) [3, 12] [logTCID50/mL]	Viral Titre after Treatment [3, 12] [logTCID50/mL]	Viral Titre after Treatment [4, 14] [logTCID50/mL]	Viral Titre after Treatment [4, 15] [logTCID50/mL]	LRV (log reduction value) [4, 16] [logTCID50/mL]	LRV (log reduction value) [4, 17] [logTCID50/mL]	LRV [5] [logTCID50/mL]	Viral Titre [5] [logTCID50/mL]	LRV [6] [logTCID50/mL]	Viral Titre [6] [logTCID50/mL]	further results
CC[C@H](C)[C@H](NC(=O)[C@H](CCCNC(=N)N)NC(=O)[C@@H](NC(=O)[C@H](Cc1c[nH]c2ccccc12)NC(=O)[C@H](CCCCN)NC(=O)[C@H](CC(C)C)NC(=O)[C@@H](N)CCCNC(=N)N)C(C)C)C(=O)N[C@@H](Cc1c[nH]c2ccccc12)C(=O)N[C@@H](CCCNC(=N)N)C(=O)N[C@@H](CCCNC(=N)N)C(N)=O [RiLK1] (H-RLKWVRIWRR-NH2; N-terminus assumed)	high structural stability	higher-ordered self-aggregates	0.3 ± 0.4 logTCID50/mL	4.2 ± 0.2	4.3 ± 0.2	0.2 ± 0.4	4.3 ± 0.2	1.0 ± 0.4	3.5 ± 0.2	0.2 ± 0.4	1.2 ± 0.4	3.3 ± 0.2	3.6 ± 0.1	3.9 ± 0.2	0.8 ± 0.4	1.1 ± 0.3	1.0 ± 0.4	3.5 ± 0.2	0.1 ± 0.3	4.6 ± 0.1	reduction of MNV-1 infectivity [3, 13]: up to 94.1%; decrease of HAV infectious titer [4, 13]: up to 96.7%; LRV ([5]; listed as RilLK1): 1.0 logTCID50/mL; Viral Titre [7]: 3.3 ± 0.2 logTCID50/mL
KLRWVKIWKK-NH2 [RiLK30, newly designed RiLK1 derivative, Arg residues exchanged with Lys and Lys3 with Arg]					3.9 ± 0.2	0.2 ± 0.5	4.3 ± 0.3	0 ± 0.4	4.5 ± 0.2	0.6 ± 0.4	0 ± 0.3	4.5 ± 0.1	4.3 ± 0.2	4.3 ± 0.2	0.4 ± 0.4	0.4 ± 0.4					virucidal activity toward MNV-1 (in words) [3]: no virucidal activity; virucidal activity toward HAV (in words) ([4]; 40 and 80 µM, 4 °C and RT): no virucidal activity; LRV (log reduction value) [4, 18]: 0.6 ± 0.4 logTCID50/mL; Viral Titre after Treatment [4, 18]: 4.1 ± 0.2 logTCID50/mL; LRV (log reduction value) [4, 19]: 0.6 ± 0.4 logTCID50/mL; Viral Titre after Treatment [4, 19]: 4.1 ± 0.2 logTCID50/mL
RLRWVRIWRR-NH2 [RiLK3, RiLK1 analog differing by one amino acid (Lys replaced with Arg), C-terminally amidated]	high structural stability	higher-ordered self-aggregates	1.0 logTCID50/mL and 1.0 ± 0.3 logTCID50/mL	3.5 ± 0.1	4.5 ± 0.2	0 ± 0.3	4.5 ± 0.1	0 ± 0.4	4.5 ± 0.2	0 ± 0.4	0 ± 0.3	4.5 ± 0.1	4.6 ± 0.1	4.6 ± 0.3	0.1 ± 0.2	0.1 ± 0.3	1.0 ± 0.3	3.5 ± 0.1	0.5 ± 0.4	4.2 ± 0.2	virucidal activity toward MNV-1 (in words) [3]: not effective; Viral Titre [7]: 4.4 ± 0.1 logTCID50/mL; LRV ([7]; then on cells 1 h 37 °C): 0.3 ± 0.3 logTCID50/mL
